In the Kinase Knowledgebase extract (Sharma et al. 2016):

target: ROCK2 (human) (UniProt O75116); assay: Assessment of ROCK2 Kinase Activity
Sequence (O75116 whole entry, looked up): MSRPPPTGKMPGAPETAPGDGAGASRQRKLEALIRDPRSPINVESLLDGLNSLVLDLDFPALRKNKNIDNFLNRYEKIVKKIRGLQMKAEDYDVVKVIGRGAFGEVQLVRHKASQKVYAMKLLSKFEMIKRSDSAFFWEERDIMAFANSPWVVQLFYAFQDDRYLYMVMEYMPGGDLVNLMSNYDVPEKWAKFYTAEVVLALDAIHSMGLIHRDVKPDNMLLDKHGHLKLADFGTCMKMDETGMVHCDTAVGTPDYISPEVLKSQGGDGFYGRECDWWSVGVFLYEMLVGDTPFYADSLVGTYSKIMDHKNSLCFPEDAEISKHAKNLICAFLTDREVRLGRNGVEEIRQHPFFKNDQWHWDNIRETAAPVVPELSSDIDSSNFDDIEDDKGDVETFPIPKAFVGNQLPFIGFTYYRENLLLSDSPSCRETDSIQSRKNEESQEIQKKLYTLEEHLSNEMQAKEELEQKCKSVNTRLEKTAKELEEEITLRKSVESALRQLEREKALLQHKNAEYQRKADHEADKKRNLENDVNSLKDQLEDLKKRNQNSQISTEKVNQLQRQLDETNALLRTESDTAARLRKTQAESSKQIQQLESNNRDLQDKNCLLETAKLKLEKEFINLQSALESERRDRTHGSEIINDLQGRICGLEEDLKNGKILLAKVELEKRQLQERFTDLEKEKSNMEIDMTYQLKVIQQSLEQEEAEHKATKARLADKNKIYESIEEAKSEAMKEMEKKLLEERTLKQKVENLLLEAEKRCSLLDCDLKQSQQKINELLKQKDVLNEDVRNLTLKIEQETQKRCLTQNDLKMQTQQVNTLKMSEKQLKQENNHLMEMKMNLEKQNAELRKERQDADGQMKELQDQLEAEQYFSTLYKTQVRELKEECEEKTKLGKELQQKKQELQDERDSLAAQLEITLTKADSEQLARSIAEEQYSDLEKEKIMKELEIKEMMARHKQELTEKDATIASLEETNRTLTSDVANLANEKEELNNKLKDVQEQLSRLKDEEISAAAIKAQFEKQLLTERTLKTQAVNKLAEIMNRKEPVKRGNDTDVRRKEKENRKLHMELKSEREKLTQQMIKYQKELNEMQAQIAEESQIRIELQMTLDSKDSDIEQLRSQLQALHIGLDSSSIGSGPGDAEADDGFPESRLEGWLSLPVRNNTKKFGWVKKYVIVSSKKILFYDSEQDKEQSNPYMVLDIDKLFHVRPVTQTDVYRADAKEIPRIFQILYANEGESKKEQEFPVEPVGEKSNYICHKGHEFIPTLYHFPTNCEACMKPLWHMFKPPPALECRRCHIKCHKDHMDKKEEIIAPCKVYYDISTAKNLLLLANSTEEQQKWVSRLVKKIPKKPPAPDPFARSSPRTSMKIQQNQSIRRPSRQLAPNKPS

IC50, ≤ 1000 nM:
O=C(CC1CCNCC1)N[C@H]1CC[C@@H](Oc2cc3cc[nH]c(=O)c3cc2Cl)CC1
O=c1[nH]ccc2cc(O[C@H]3CC[C@H](N4CCOCC4)CC3)c(Cl)cc12
N[C@H]1C[C@H](COc2cc3cc[nH]c(=O)c3cc2Cl)C1
O=c1[nH]ccc2cc(OC3CCC(N4CCCCC4)CC3)c(Cl)cc12 (centres undefined)
CN1CCN([C@H]2CC[C@H](Oc3cc4cc[nH]c(=O)c4cc3Cl)CC2)CC1
N[C@H]1CCC[C@@H](Oc2cc3cc[nH]c(=O)c3cc2Cl)CC1
NC1CC(Oc2cc3cc[nH]c(=O)c3cc2Cl)C1 (centres undefined)
NC(=O)C1CCN(C2CCC(Oc3cc4cc[nH]c(=O)c4cc3Cl)CC2)CC1 (centres undefined)
N[C@H]1CC[C@H](Oc2cc3cc[nH]c(=O)c3cc2Cl)C1
N[C@@H]1CC[C@H](Oc2ccc3c(=O)[nH]ccc3c2)C1
O=c1[nH]ccc2cc(O[C@H]3CC[C@@H](N4CCCC4)CC3)c(Cl)cc12
CCC[C@]1(N)CCC[C@@H](Oc2cc3cc[nH]c(=O)c3cc2Cl)CCC1
O=C(CCC1CCNCC1)N[C@H]1CC[C@@H](Oc2cc3cc[nH]c(=O)c3cc2Cl)CC1
O=C(O)CN[C@H]1CC[C@@H](Oc2cc3cc[nH]c(=O)c3cc2Cl)CC1
O=c1[nH]ccc2cc(O[C@H]3CC[C@@H](N4CCOCC4)CC3)c(Cl)cc12
CN1CCN([C@H]2CC[C@@H](Oc3cc4cc[nH]c(=O)c4cc3Cl)CC2)CC1
O=c1[nH]ccc2cc(O[C@H]3CC[C@H](N4CCCC4)CC3)c(Cl)cc12
Cc1cc2c(=O)[nH]ccc2cc1O[C@@H]1CCC[C@H](N)CC1
CCC[C@]1(N)CCC[C@H](Oc2cc3cc[nH]c(=O)c3cc2Cl)CCC1
